Source: patent US20060069132A1, “Azolecarboxamide herbicides” (priority 2004, published 2006)

Key:
wheat = assay: Test B postemergence herbicide test; assay type: in vivo, Triticum aestivum; set-up: key to Wheat plant response rating: 0 = no effect, 100 = complete control
Procedure, shortened: (§1)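 Formulated test chemicals went onto postemergence plants measuring 2 to 18 cm, at one to four leaves. For the paddy assay, species had reached two leaves. Scoring took place 13–15 days later by eye, relative to untreated plants, using 0 for no effect up to 100 for full control.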

redroot pigweed = assay: Test A pre-/postemergence herbicide test; assay type: in vivo, Amaranthus retroflexus
Procedure, shortened: (§2)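 Both application timings were run together: directed soil spray over freshly planted seeds in sandy loam, and runoff spray onto 2–10 cm seedlings. Evaluation after ~10 days in greenhouse used a 0–100 visual scale versus untreated controls.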

barnyardgrass [1] = assay: Test B flooded paddy test; assay type: in vivo, Echinochloa crus-galli; conditions: 1000 g ai/ha, scale 0 to 100 (0 no effect, 100 complete control)
Procedure, shortened: as §1

pigweed = assay: Test B pre-/postemergence herbicide test; assay type: in vivo, Amaranthus retroflexus
Procedure, shortened: (§3)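 Herbicidal effect was judged by eye on a 0–100 scale after plants stood 13 to 15 days in the greenhouse following pre- or postemergence treatment with surfactant-containing formulations.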

ducksalad = assay: Test B flooded paddy test; assay type: in vivo, Heteranthera limosa; conditions: 1000 g ai/ha, scale 0 to 100 (0 no effect, 100 complete control)
Procedure, shortened: as §1

Surinam grass = assay: Test B pre-/postemergence herbicide test; assay type: in vivo, Urochloa decumbens; conditions: for Surinam Grass plant response rating: postemergence
Procedure, shortened: as §3

velvetleaf [2] = assay: Test A pre-/postemergence herbicide test; assay type: in vivo, Abutilon theophrasti
Procedure, shortened: as §2

large crabgrass [3] = assay: Test B pre-/postemergence herbicide test; assay type: in vivo, Digitaria sanguinalis
Procedure, shortened: as §3

cocklebur = assay: Test B pre-/postemergence herbicide test; assay type: in vivo, Xanthium strumarium
Procedure, shortened: (§4)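 Plants compared with untreated controls 13–15 days post-treatment and given a visual 0–100 injury score. Applications: preemergence to seeds; postemergence at 1- to 4-leaf (2–18 cm); paddy species flooded, 2-leaf stage. Vehicle non-phytotoxic, surfactant included.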

lambsquarters = assay: Test B pre-/postemergence herbicide test; assay type: in vivo, Chenopodium album
Procedure, shortened: as §3

[4] = system: small flower umbrella sedge; assay: Test B flooded paddy test; assay type: in vivo, Cyperus difformis; conditions: 1000 g ai/ha, scale 0 to 100 (0 no effect, 100 complete control)
Procedure, shortened: as §1

blackgrass = assay: Test B postemergence herbicide test; assay type: in vivo, Alopecurus myosuroides
Procedure, shortened: as §1

wild oat = assay: Test B postemergence herbicide test; assay type: in vivo, Avena fatua
Procedure, shortened: as §1

rice = assay: Test B flooded paddy test; assay type: in vivo, Oryza sativa; conditions: 1000 g ai/ha, scale 0 to 100 (0 no effect, 100 complete control)
Procedure, shortened: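 Treated at 2-leaf (paddy) or 1–4-leaf, 2–18 cm (postemergence); greenhouse 13–15 d; visual score vs control, 0 none to 100 complete control; dash = not tested.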

large crabgrass [5] = assay: Test A pre-/postemergence herbicide test; assay type: in vivo, Digitaria sanguinalis
Procedure, shortened: as §2

morningglory [6] = assay: Test B pre-/postemergence herbicide test; assay type: in vivo, Ipomoea coccinea; conditions: for Morningglory plant response rating: postemergence
Procedure, shortened: as §4

barnyardgrass [7] = assay: Test A pre-/postemergence herbicide test; assay type: in vivo, Echinochloa crus-galli
Procedure, shortened: as §2

velvetleaf [8] = assay: Test B pre-/postemergence herbicide test; assay type: in vivo, Abutilon theophrasti
Procedure, shortened: as §3

barnyardgrass [9] = assay: Test B pre-/postemergence herbicide test; assay type: in vivo, Echinochloa crus-galli
Procedure, shortened: as §4

corn = assay: Test B pre-/postemergence herbicide test; assay type: in vivo, Zea mays; conditions: for Corn plant response rating: postemergence
Procedure, shortened: as §3

morningglory [10] = assay: Test A pre-/postemergence herbicide test; assay type: in vivo, Ipomoea spp.
Procedure, shortened: as §2

giant foxtail [11] = assay: Test B pre-/postemergence herbicide test; assay type: in vivo, Setaria faberi
Procedure, shortened: as §3

giant foxtail [12] = assay: Test A pre-/postemergence herbicide test; assay type: in vivo, Setaria faberi
Procedure, shortened: as §2

[13] = 125 g ai/ha, visual rating, scale 0 (no effect) to 100 (complete control), postemergence
[14] = postemergence, 500 g ai/ha, scale 0 to 100, 0 is no effect, 100 is complete control
[15] = Postemergence, 125 g ai/ha, 0 to 100 scale, 0 no effect, 100 complete control
[16] = Postemergence, 500 g ai/ha, 0 to 100 scale, 0 no effect, 100 complete control
[17] = preemergence, 125 g ai/ha, visual injury, 0 to 100 scale (0 no effect, 100 complete control)
[18] = preemergence, 500 g ai/ha, visual injury, 0 to 100 scale (0 no effect, 100 complete control)
[19] = 125 g ai/ha, 0 = no effect, 100 = complete control, preemergence
[20] = 500 g ai/ha, visual rating, 0 = no effect, 100 = complete control, preemergence
[21] = 125 g ai/ha, visual rating, scale 0 (no effect) to 100 (complete control)
[22] = 500 g ai/ha, scale 0 to 100, 0 is no effect, 100 is complete control
[23] = Postemergence, 250 g ai/ha, scale 0 (no effect) to 100 (complete control)
[24] = postemergence, 62 g ai/ha, scale 0 to 100
[25] = Postemergence, 2000 g ai/ha, 0 to 100 scale, 0 no effect, 100 complete control
[26] = Preemergence, 500 g ai/ha, visual rating, 0 to 100 scale (0 no effect, 100 complete control)
[27] = Preemergence, 2000 g ai/ha, 0 to 100 scale, 0 no effect, 100 complete control

CC(=NO)c1cccc(NC(=O)c2cc(C(C)(C)C)n[nH]2)c1 [Compound 311]
Wheat plant response rating (wheat; [13]): 0
Wheat plant response rating (wheat; [14]): 0
Pigweed plant response rating (redroot pigweed; [15]): 0
Pigweed plant response rating (redroot pigweed; [16]): 0
Pigweed plant response rating (redroot pigweed; [17]): 0
Pigweed plant response rating (redroot pigweed; [18]): 0
Barnyardgrass plant response rating (barnyardgrass [1]): 50
Pigweed plant response rating (0 to 100 scale) (pigweed; [19]): 0
Pigweed plant response rating (pigweed; [13]): 0
Plant response rating, Pigweed (pigweed; [20]): 0
Pigweed plant response rating (pigweed; [14]): 0
Ducksalad plant response rating (ducksalad): 60
Surinam Grass plant response rating (0 to 100 scale) (Surinam grass; [19]): 0
Surinam Grass plant response rating (Surinam grass; [21]): 0
Plant response rating, Surinam Grass (Surinam grass; [20]): 0
Surinam Grass plant response rating (Surinam grass; [22]): 0
Velvetleaf plant response rating (velvetleaf [2]; [15]): 0
Velvetleaf plant response rating (velvetleaf [2]; [16]): 10
Velvetleaf plant response rating (velvetleaf [2]; [17]): 0
Velvetleaf plant response rating (velvetleaf [2]; [18]): 0
Crabgrass, Large plant response rating (0 to 100 scale) (large crabgrass [3]; [19]): 0
Crabgrass, Large plant response rating (large crabgrass [3]; [13]): 0
Plant response rating, Crabgrass, Large (large crabgrass [3]; [20]): 0
Crabgrass, Large plant response rating (large crabgrass [3]; [14]): 0
Cocklebur plant response rating (0 to 100 scale) (cocklebur; [19]): 0
Cocklebur plant response rating (cocklebur; [13]): 0
Plant response rating, Cocklebur (cocklebur; [20]): 0
Cocklebur plant response rating (cocklebur; [14]): 0
Lambsquarters plant response rating (0 to 100 scale) (lambsquarters; [19]): 0
Lambsquarters plant response rating (lambsquarters; [13]): 0
Plant response rating, Lambsquarters (lambsquarters; [20]): 0
Lambsquarters plant response rating (lambsquarters; [14]): 0
Sedge, Umbrella plant response rating [4]: 30
Blackgrass plant response rating (blackgrass; [13]): 0
Blackgrass plant response rating (blackgrass; [14]): 0
Oat, Wild plant response rating (wild oat; [13]): 0
Oat, Wild plant response rating (wild oat; [14]): 0
Rice plant response rating (rice): 60
Crabgrass, Large plant response rating (large crabgrass [5]; [15]): 0
Crabgrass, Large plant response rating (large crabgrass [5]; [16]): 10
Crabgrass, Large plant response rating (large crabgrass [5]; [17]): 0
Crabgrass, Large plant response rating (large crabgrass [5]; [18]): 0
Morningglory plant response rating (0 to 100 scale) (morningglory [6]; [19]): 0
Morningglory plant response rating (morningglory [6]; [21]): 0
Plant response rating, Morningglory (morningglory [6]; [20]): 0
Morningglory plant response rating (morningglory [6]; [22]): 0
Barnyardgrass plant response rating (barnyardgrass [7]; [15]): 0
Barnyardgrass plant response rating (barnyardgrass [7]; [16]): 10
Barnyardgrass plant response rating (barnyardgrass [7]; [17]): 0
Barnyardgrass plant response rating (barnyardgrass [7]; [18]): 0
Velvetleaf plant response rating (velvetleaf [8]; [13]): 0
Plant response rating, Velvetleaf (velvetleaf [8]; [20]): 0
Velvetleaf plant response rating (velvetleaf [8]; [14]): 0
Barnyardgrass plant response rating (0 to 100 scale) (barnyardgrass [9]; [19]): 0
Barnyardgrass plant response rating (barnyardgrass [9]; [13]): 0
Plant response rating, Barnyardgrass (barnyardgrass [9]; [20]): 0
Barnyardgrass plant response rating (barnyardgrass [9]; [14]): 0
Corn plant response rating (0 to 100 scale) (corn; [19]): 0
Corn plant response rating (corn; [21]): 0
Plant response rating, Corn (corn; [20]): 0
Corn plant response rating (corn; [22]): 0
Morningglory plant response rating (morningglory [10]; [15]): 0
Morningglory plant response rating (morningglory [10]; [16]): 0
Morningglory plant response rating (morningglory [10]; [17]): 0
Morningglory plant response rating (morningglory [10]; [18]): 0
Foxtail, Giant plant response rating (0 to 100 scale) (giant foxtail [11]; [19]): 0
Foxtail, Giant plant response rating (giant foxtail [11]; [13]): 0
Plant response rating, Foxtail, Giant (giant foxtail [11]; [20]): 0
Foxtail, Giant plant response rating (giant foxtail [11]; [14]): 0
Foxtail, Giant plant response rating (giant foxtail [12]; [15]): 0
Foxtail, Giant plant response rating (giant foxtail [12]; [16]): 0
Foxtail, Giant plant response rating (giant foxtail [12]; [17]): 0
Foxtail, Giant plant response rating (giant foxtail [12]; [18]): 0

CN1Cc2c(NC(=O)c3cc(C(C)(C)C)nn3C)cccc2C1=O [Compound 54]
Wheat plant response rating (wheat; 250 g ai/ha, scale 0 to 100, 0 no effect, 100 complete control, preemergence): 0
Wheat plant response rating (wheat; [23]): 0
Wheat plant response rating (wheat; [24]): 0
Plant response rating, Pigweed (redroot pigweed; [16]): 20
Plant response rating, Pigweed (redroot pigweed; [25]): 20
Pigweed plant response rating (redroot pigweed; [26]): 10
Pigweed plant response rating (redroot pigweed; [27]): 65
Barnyardgrass plant response rating (barnyardgrass [1]; visual rating, 13 to 15 days): 0
Pigweed plant response rating (pigweed; [23]): 10
Pigweed plant response rating (pigweed; [24]): 0
Ducksalad plant response rating (ducksalad; visual rating, 13 to 15 days): 0
Surinam Grass plant response rating (Surinam grass; 62 g ai/ha, scale 0 to 100): 0
Plant response rating, Velvetleaf (velvetleaf [2]; [25]): 5
Velvetleaf plant response rating (velvetleaf [2]; [26]): 0
Velvetleaf plant response rating (velvetleaf [2]; [27]): 0
Crabgrass, Large plant response rating (large crabgrass [3]; [23]): 0
Crabgrass, Large plant response rating (large crabgrass [3]; [24]): 0
Cocklebur plant response rating (cocklebur; [23]): 10
Cocklebur plant response rating (cocklebur; [24]): 10
Lambsquarters plant response rating (lambsquarters; [23]): 40
Lambsquarters plant response rating (lambsquarters; [24]): 40
Sedge, Umbrella plant response rating ([4]; visual rating, 13 to 15 days): 0
Blackgrass plant response rating (blackgrass; [23]): 0
Blackgrass plant response rating (blackgrass; [24]): 0
Oat, Wild plant response rating (wild oat; [23]): 0
Oat, Wild plant response rating (wild oat; [24]): 0
Rice plant response rating (rice; visual rating, 13 to 15 days): 0
Plant response rating, Crabgrass, Large (large crabgrass [5]; [16]): 10
Plant response rating, Crabgrass, Large (large crabgrass [5]; [25]): 15
Crabgrass, Large plant response rating (large crabgrass [5]; [26]): 25
Crabgrass, Large plant response rating (large crabgrass [5]; [27]): 35
Morningglory plant response rating (morningglory [6]; 62 g ai/ha, scale 0 to 100): 10
Plant response rating, Barnyardgrass (barnyardgrass [7]; [16]): 10
Plant response rating, Barnyardgrass (barnyardgrass [7]; [25]): 10
Barnyardgrass plant response rating (barnyardgrass [7]; [26]): 5
Barnyardgrass plant response rating (barnyardgrass [7]; [27]): 25
Velvetleaf plant response rating (velvetleaf [8]; [23]): 0
Velvetleaf plant response rating (velvetleaf [8]; [24]): 0
Barnyardgrass plant response rating (barnyardgrass [9]; [23]): 0
Barnyardgrass plant response rating (barnyardgrass [9]; [24]): 0
Corn plant response rating (corn; 62 g ai/ha, scale 0 to 100): 10
Plant response rating, Morningglory (morningglory [10]; [16]): 0
Plant response rating, Morningglory (morningglory [10]; [25]): 10
Morningglory plant response rating (morningglory [10]; [26]): 0
Morningglory plant response rating (morningglory [10]; [27]): 15
Foxtail, Giant plant response rating (giant foxtail [11]; [23]): 0
Foxtail, Giant plant response rating (giant foxtail [11]; [24]): 0
Plant response rating, Foxtail, Giant (giant foxtail [12]; [16]): 10
Plant response rating, Foxtail, Giant (giant foxtail [12]; [25]): 5
Foxtail, Giant plant response rating (giant foxtail [12]; [26]): 0
Foxtail, Giant plant response rating (giant foxtail [12]; [27]): 15
